Columns and labels:
[1] = system: A. flavus strain IFM50915; assay: A. flavus respiratory tract infection model; format: in vivo, mice
Protocol: (§1) Female DBA/2N mice (age 8 weeks, Charles River Laboratories Japan, Inc.) were subcutaneously administered 200 mg/kg of 5-fluorouracil 5 or 6 days prior to infection in order to put the mice into a compromised state.
(§2) A. fumigatus strain IFM52108 and A. flavus strain IFM50915 were used.
A liquid containing spores of A. flavus strain IFM50915 stored at −80° C. was thawed, and the number of spores was counted using a hemocytometer followed by diluting with sterile physiological saline containing 0.05% Tween 80 to a concentration of 0.6×10^6 cells/mL to 1.0×10^6 cells/mL to obtain an inoculation fungus liquid.
(§3) 50 μl of inoculation fungus liquid were inoculated into the nasal cavities of 9-week-old mice at 0.3×10^5 cells/mouse to 1.25×10^5 cells/mouse under Ketalar anesthesia.
(§4) 0.1 mL to 0.2 mL of each drug solution (dissolved in sterile physiological saline or 5% glucose solution, or dissolved in sterile physiological saline or 5% glucose solution containing 6.5% dimethylsulfoxide and 3.5% Tween 80) was administered to the individual and combination dose groups either into the peritoneal cavity or into the stomach using a gastric cannula corresponding to the administration route of the drug for 3 to 4 days at the rate of 1 to 2 times per day starting 0.5 hours to 1 hour after inoculation of fungus.
(§5) There were 5 to 9 animals in each group.
(§6) Infection protection results were assessed on survival rate 14 days after infection.

[2] = system: C. glabrata; assay: In vitro combination effects, checkerboard method by micro dilution (FIC index); format: cell-based, Candida glabrata; details: C. glabrata (5 strains); combination use with Test Compound 1
Protocol: (§7) A clinically isolated strain retained by the Medical Mycology Research Center of Chiba University (Code No. IFM) and a clinically isolated strain retained by the Life Science Research Center of Gifu University (Code No. E) were used as Candida and Aspergillus strains.
(§8) Fungus liquid obtained by static culturing at 35° C. for 48 hours in Sabouraud Dextrose liquid medium (SDB, Becton, Dickinson and Co.) was diluted with RPMI 1640 medium (Nissui Pharmaceutical Co., Ltd.) containing 0.165 M 3-(N-morpholino)propanesulfonic acid (MOPS) to prepare a fungus liquid having a fungus concentration of 1×10^3 cells/mL to 2×10^3 cells/mL.
(§9) Test Compound 1 (0.0005 μg/mL to 1.56 μg/mL) in the horizontal rows (12 wells) of a 96-well flat-bottom plate, and an antifungal agent in the form of ravuconazole (0.0015 μg/mL to 6.25 μg/mL), fluconazole (0.008 μg/mL to 32 μg/mL), voriconazole (0.0002 μg/mL to 8 μg/mL), micafungin (0.0005 μg/mL to 0.25 μg/mL), caspofungin (0.0005 μg/mL to 1 μg/mL) or amphotericin B (0.008 μg/mL to 8 μg/mL) in the vertical rows (8 wells) of the flat-bottom plate were prepared by diluting so as to blend together using RPMI 1640 medium containing 0.165 M MOPS to obtain a control group, a single Test Compound 1 group, each one of antifungal agents groups and combination groups of Test Compound 1+each one of antifungal agents.
(§10) The fungus liquids prepared in (1) were inoculated into the wells of 96-well flat-bottom plate containing 20 μL/well to 75 μL/well of the diluted test drug liquids prepared in (2) at 80 μL/well to 125 μL/well, followed by aerobically static culturing for 25 hours to 48 hours at 35° C.
(§11) Combination effects of Test Compound 1 and the antifungal agents were measured with the checkerboard method by micro dilution.
(§12) Interaction between both drugs was assessed by calculating the FIC index using the calculation formula indicated below.
(§13) The FIC index was calculated for each combination of antifungal agent concentrations that inhibited fungal growth, and the minimum value of the resulting FIC index was used as a combination FIC index.
(§14) A combination FIC index of 0.5 or less was evaluated as indicating synergistic action, that of 0.5 to 1 or less was evaluated as indicating additive action, and that of 1 to 4 or less was evaluated as indicating indifferent action.
(§15) FIC Index=(MIC value of drug A during combination use/MIC value of drug A when used alone)+(MIC value of drug B during combination use/MIC value of drug B when used alone) (Calculation Formula)

[3] = system: C. tropicalis; assay: as above; format: cell-based, Candida tropicalis
Protocol: as §7, §8, §9, §10, §11, §12, §13, §14, §15

[4] = system: C. albicans; assay: as above; format: cell-based, Candida albicans
Protocol: as §7, §8, §9, §10, §11, §12, §13, §14, §15

[5] = system: A. fumigatus; assay: as above; format: cell-based, Aspergillus fumigatus; details: A. fumigatus (16 strains)
Protocol: as §7
(§16) An Aspergillus strain stored frozen at −80° C., or spores obtained by static culturing at 35° C. for 1 week in Potato Dextrose agar medium (PDA, Eiken Chemical Co., Ltd.) followed by scraping from the container with a metal loop, was diluted with RPMI 1640 medium containing 0.165 M MOPS to prepare a fungus liquid having a fungus concentration of 0.75×10^4 cells/mL to 1.33×10^4 cells/mL.
as §9, §10, §11, §12, §13, §14, §15

[6] = system: A. flavus; assay: as above; format: cell-based, Aspergillus flavus; details: A. flavus (4 strains), Table 2
Protocol: as §7, §16, §9, §10, §11, §12, §13, §14, §15

[7] = system: A. fumigatus strain IFM52108; assay: A. fumigatus respiratory tract infection model; format: in vivo, mice
Protocol: as §1, §2
A liquid containing spores of A. fumigatus strain IFM52108 stored at −80° C. was applied to Potato Dextrose agar medium (PDA, Eiken Chemical Co., Ltd.) followed by static culturing for 5 to 7 days at 35° C. and suspending in sterile physiological saline containing 0.05% Tween 80.
The number of spores was counted using a hemocytometer, and the liquid was diluted with sterile physiological saline containing 0.05% Tween 80 to a concentration of 1.2×10^6 cells/mL to 2.5×10^6 cells/mL to obtain an inoculation fungus liquid.
as §3, §4, §5, §6

[8] = C. tropicalis (5 strains), combination use with Test Compound 1
[9] = C. albicans (9 strains), combination use with Test Compound 1

With `C[C@@H](c1nc(-c2ccc(C#N)cc2)cs1)[C@](O)(Cn1cncn1)c1ccc(F)cc1F` [Ravuconazole, ravuconazole] as the compound, how does the 14-day survival rate ([1]; RVCZ 2.5 mg/kg) read?
Its 14-day survival rate is 40%.

And the 14-day survival rate ([1]; RVCZ 5 mg/kg)?
Its 14-day survival rate is 80%.

And the “Ratio indicating Additive effect of combination use with Test Compound 1” value (shortened to “Ratio indicating Additive effect”) [2]?
The value was 60%.

And the “Ratio indicating Antagonistic effect of combination use with Test Compound 1” value (“Ratio indicating Antagonistic effect” below) [2]?
The value was 0%.

What about the “Ratio indicating Indifferent effect of combination use with Test Compound 1” value (from here on “Ratio indicating Indifferent effect”) [2] of the same compound?
The value was 0%.

What about the “Ratio indicating Synergistic effect of combination use with Test Compound 1” value (from here on “Ratio indicating Synergistic effect”) [2] of the same compound?
Its value is 40%.

And the “Ratio indicating Additive effect” value [3, 8]?
The value was 0%.

What about the “Ratio indicating Antagonistic effect” value [3, 8] of the same compound?
The value was 0%.

What about the “Ratio indicating Indifferent effect” value [3, 8] of the same compound?
The value was 0%.

And the “Ratio indicating Synergistic effect” value [3, 8]?
Its value is 100%.

And the “Effect of combination use with Test Compound 1 (FIC index evaluation)” value ([3]; Candida tropicalis strains E83037, E83038, E83039, E83040 and E83041, resistant to azole antifungal agents)?
The value was “synergistic (A combination FIC index of 0.5 or less was evaluated as indicating synergistic action)”.

And the “Ratio indicating Additive effect” value [4, 9]?
The value was 56%.

What about the “Ratio indicating Antagonistic effect” value [4, 9] of the same compound?
The value was 0%.

And the “Ratio indicating Indifferent effect” value [4, 9]?
The value was 0%.

And the “Ratio indicating Synergistic effect” value [4, 9]?
The value was 44%.

What about the “Effect of combination use with Test Compound 1 (FIC index evaluation)” value ([4]; Candida albicans IFM49738, resistant to azole antifungal agents) of the same compound?
The value was “synergistic (A combination FIC index of 0.5 or less was evaluated as indicating synergistic action)”.

And the “Ratio indicating Additive effect” value [5]?
The value was 6%.

And the “Ratio indicating Antagonistic effect” value [5]?
Its value is 0%.

What about the “Ratio indicating Indifferent effect” value [5] of the same compound?
Its value is 94%.

And the “Ratio indicating Synergistic effect” value [5]?
Its value is 0%.

And the “Ratio indicating Additive effect” value [6]?
Its value is 25%.

And the “Ratio indicating Antagonistic effect” value [6]?
Its value is 0%.

What about the “Ratio indicating Indifferent effect” value [6] of the same compound?
Its value is 75%.

What about the “Ratio indicating Synergistic effect” value [6] of the same compound?
Its value is 0%.

What about the 14-day survival rate ([7]; RVCZ 5 mg/kg) of the same compound?
The 14-day survival rate was 0%.

What about the 14-day survival rate ([7]; RVCZ 10 mg/kg) of the same compound?
The 14-day survival rate was 40%.

What about the “Combination effects in mouse Aspergillus fumigatus infection model” value ([7]; combination with the test compound of the invention) of the same compound?
Its value is “synergistic combination effects”.
